Activity calls are given as the source filed them. The calls are words filed in the database; no cut-off is given here. A value given as a limit tells only on which side of the number the result lay.

Data set [1] concerns the target T1, Cholinesterase (Equus caballus, UniProt P81908).
Description: (§1) Inhibition of horse serum BChE using butyrylthiocholine iodide as substrate preincubated for 35 mins followed by enzyme addition measured after 3 mins by Ellman's method
The target in data set [2] is Cholinesterase (Equus caballus) (UniProt P81908). Briefly: Inhibition of horse serum BChE using butyrylthiocholine iodide as substrate assessed as residual activity at 15 uM preincubated for 35 mins followed by enzyme addition measured after 3 mins by Ellman's method relative to control. On the technique in general: In Ellman's method for cholinesterases, released thiocholine reacts with DTNB.
Chain of Cholinesterase (Equus caballus) (P81908 whole entry): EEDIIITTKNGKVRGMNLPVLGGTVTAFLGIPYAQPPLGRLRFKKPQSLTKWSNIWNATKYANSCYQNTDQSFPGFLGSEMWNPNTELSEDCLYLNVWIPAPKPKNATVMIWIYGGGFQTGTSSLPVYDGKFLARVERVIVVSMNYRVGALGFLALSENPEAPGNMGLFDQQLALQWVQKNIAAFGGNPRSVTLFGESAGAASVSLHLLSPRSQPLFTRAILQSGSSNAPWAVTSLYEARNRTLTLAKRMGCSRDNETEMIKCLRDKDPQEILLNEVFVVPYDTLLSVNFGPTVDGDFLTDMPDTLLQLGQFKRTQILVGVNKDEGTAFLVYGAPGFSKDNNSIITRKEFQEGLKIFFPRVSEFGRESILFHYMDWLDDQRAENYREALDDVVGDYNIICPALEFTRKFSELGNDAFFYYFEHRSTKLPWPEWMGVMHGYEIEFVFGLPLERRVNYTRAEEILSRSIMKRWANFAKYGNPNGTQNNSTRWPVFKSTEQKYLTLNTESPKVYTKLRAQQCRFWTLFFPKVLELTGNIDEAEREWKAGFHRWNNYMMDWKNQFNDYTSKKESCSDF

Data set [3] has the same target. Briefly: Inhibition of horse serum BChE using butyrylthiocholine iodide as substrate assessed as residual activity at 40 uM preincubated for 35 mins followed by enzyme addition measured after 3 mins by Ellman's method relative to control.
The target is the same in data set [4]. Kind of data set: Inhibition of horse serum BChE using butyrylthiocholine iodide as substrate assessed as residual activity at 30 uM preincubated for 35 mins followed by enzyme addition measured after 3 mins by Ellman's method relative to control.
The nature of data set [5]: Stability of the compound. Type of data set: physicochemical.
In data set [6] the test system is Electrophorus electricus. Kind of data set: Inhibition of electric eel acetylcholinesterase type VI-S using acetylthiocholine iodide as substrate assessed as residual activity at 20 uM preincubated for 35 mins followed by enzyme addition measured after 3 mins by Ellman's method relative to control.
Data set [7] is described as follows: Mixed type inhibition of electric eel acetylcholinesterase type VI-S using acetylthiocholine iodide as substrate assessed as enzyme-inhibitor complex by Lineweaver-Burk plot analysis. On the set-up: species or system Electrophorus electricus.
For data set [8], the system named is Electrophorus electricus. Briefly: Reversible inhibition of electric eel acetylcholinesterase type VI-S using acetylthiocholine iodide as substrate by Lineweaver-Burk plot analysis.
In data set [9] the target is T1, Cholinesterase. The source holds these as a separate data set.
Description: as §1
In data set [10] the test system is Electrophorus electricus. Kind of data set: Inhibition of electric eel acetylcholinesterase type VI-S using acetylthiocholine iodide as substrate assessed as residual activity at […] preincubated for 35 mins followed by enzyme addition measured after 3 mins by Ellman's method relative to control.
Data set [11] relates to Electrophorus electricus. Briefly: Inhibition of electric eel acetylcholinesterase type VI-S using acetylthiocholine iodide as substrate assessed as residual activity at 8.5 uM preincubated for 35 mins followed by enzyme addition measured after 3 mins by Ellman's method relative to control.
Data set [12] deals with Cholinesterase (Equus caballus) (UniProt P81908). Briefly: Inhibition of horse serum BChE using butyrylthiocholine iodide as substrate assessed as residual activity at 20 uM preincubated for 35 mins followed by enzyme addition measured after 3 mins by Ellman's method relative to control.
Data set [13] has as its system Electrophorus electricus. Briefly: Inhibition of electric eel acetylcholinesterase type VI-S using acetylthiocholine iodide as substrate assessed as residual activity at 15 uM preincubated for 35 mins followed by enzyme addition measured after 3 mins by Ellman's method relative to control.
Data set [14] relates to Electrophorus electricus. Kind of data set: Inhibition of electric eel acetylcholinesterase type VI-S using acetylthiocholine iodide as substrate assessed as residual activity at 25 uM preincubated for 35 mins followed by enzyme addition measured after 3 mins by Ellman's method relative to control.
Data set [15] concerns the target Cholinesterase (Equus caballus) (UniProt P81908). Briefly: Inhibition of horse serum BChE using butyrylthiocholine iodide as substrate assessed as residual activity at 10 uM preincubated for 35 mins followed by enzyme addition measured after 3 mins by Ellman's method relative to control.

T1 sequence (P81908 whole entry): as above

For orientation: IC50 means the concentration that inhibits the measured activity by half. Read a low IC50 as greater potency in that assay. The compound `CC(C)c1ccc(C(=O)CC(C(=O)NC2CCCCC2)N2CCOCC2)c(C(C)C)c1` (centres undefined) showed an IC50 at Cholinesterase [1] of over 20 µM. For the compound `CC(C)c1ccc(C(=O)CC(C(=O)Nc2ccccc2)N2CCCCC2)c(C(C)C)c1` (centres undefined), the Activity in data set [2] worked out at 60.1%. In the case of `CC(C)c1ccc(C(=O)CC(C(=O)Nc2ccccc2)N2CCOCC2)cc1` (centres undefined), the Activity in data set [3] was determined as 72.8%.

Turning to `CC(C)c1ccc(C(=O)CC(C(=O)Nc2ccccc2)n2ccnc2)cc1` (centres undefined), the Activity in data set [4] was found to be 90%.

As to `O=C(CC(C(=O)Nc1ccccc1)N1CCCCC1)c1cccc2c1CCCC2` (centres undefined), the Activity in data set [2] came to 78.5%. In the case of `O=C(CC(C(=O)Nc1ccccc1)N1CCOCC1)c1cccc2c1CCCC2` (centres undefined), in [3], the Activity stood at 87%. Turning to `O=C(CC(C(=O)Nc1ccccc1)n1ccnc1)c1cccc2c1CCCC2` (centres undefined), the Activity in data set [3] worked out at 83%. With `COc1cc(NC(=O)C(CC(=O)c2ccc(C(C)C)cc2)N2CCCCC2)cc(OC)c1` (racemic), the Stability result in data set [5] is reported as “Unstable”. On Cholinesterase [1], `COc1cc(NC(=O)C(CC(=O)c2ccc(C(C)C)cc2)n2ccnc2)cc(OC)c1` (racemic) displayed an IC50 of over 20 µM.

At Cholinesterase [1], `COc1cc(NC(=O)C(CC(=O)c2ccc(C(C)C)cc2)N2CCOCC2)cc(OC)c1` (racemic) came in with a 50% inhibitory concentration (IC50) of over 20 µM. On to `COc1cc(NC(=O)C(CC(=O)c2ccc(C(C)C)cc2)N2CCN(C)CC2)cc(OC)c1` (racemic), for which the Activity with Electrophorus electricus [6] worked out at 76.7%. The IC50 against Cholinesterase [1] was over 20 µM. With `CC(C)c1ccc(NC(=O)C(CC(=O)c2ccc(C(C)C)cc2)N2CCCCC2)cc1` (racemic), in [5], the Stability result was “Unstable”. For `CC(C)c1ccc(NC(=O)C(CC(=O)c2ccc(C(C)C)cc2)n2ccnc2)cc1` (racemic), at Cholinesterase [1], the IC50 is over 20 µM. On to `CC(C)c1ccc(NC(=O)C(CC(=O)c2ccc(C(C)C)cc2)N2CCOCC2)cc1` (racemic), for which the half-maximal inhibitory concentration (IC50) on Cholinesterase [1] was over 20 µM. The same measure, in the same setting: as for `COc1ccc(NC(=O)C(CC(=O)c2ccc(C(C)C)cc2C(C)C)N2CCCCC2)cc1OC` (racemic), the figure is over 7.5 µM; as for `COc1ccc(NC(=O)C(CC(=O)c2ccc(C(C)C)cc2C(C)C)N2CCN(C)CC2)cc1OC` (racemic), 5.26 µM.

What is called Ki is the dissociation constant of the complex between target and ligand, obtained from inhibition or displacement. Consider `CC(C)c1ccc(NC(=O)C(CC(=O)c2ccc(C(C)C)cc2C(C)C)N2CCCCC2)cc1` (racemic), for which the inhibition constant (Ki) in data set [7] was determined as 0.52 µM. The inhibition entry with Electrophorus electricus [8] was “Active”. In addition, the IC50 entry against Cholinesterase [9] is given as “ND(Insoluble)”. With `CC(C)c1ccc(NC(=O)C(CC(=O)c2ccc(C(C)C)cc2C(C)C)n2ccnc2)cc1` (racemic), the 50% inhibitory concentration (IC50) on Cholinesterase [1] is over 20 µM. On to `CC(C)c1ccc(NC(=O)C(CC(=O)c2ccc(C(C)C)cc2C(C)C)N2CCN(C)CC2)cc1` (racemic), for which, in the data set with Electrophorus electricus [10], the Activity stood at 43.6%. At Cholinesterase [1], this compound returned an IC50 of 0.74 µM. In turn, `CC(C)c1ccc(C(=O)CC(C(=O)NC2CCCCC2)N2CCN(C)CC2)c(C(C)C)c1` (racemic) came in with a concentration for half-maximal inhibition (IC50) at Cholinesterase [1] of 2.25 µM. Turning to `O=C(CC(C(=O)NC1CCCCC1)N1CCCCC1)c1cccc2c1CCCC2` (racemic), the IC50 at Cholinesterase [1] was over 20 µM. Same read-out and setting: as for `O=C(CC(C(=O)NC1CCCCC1)n1ccnc1)c1cccc2c1CCCC2` (racemic), the figure is over 20 µM. For `O=C(CC(C(=O)NC1CCCCC1)N1CCOCC1)c1cccc2c1CCCC2` (racemic), the half-maximal inhibitory concentration (IC50) entry at Cholinesterase [9] is on record as “ND(Insoluble)”. Regarding `CC(C)c1ccc(NC(=O)C(CC(=O)c2cccc3c2CCCC3)N2CCCCC2)cc1` (racemic), on Cholinesterase [9], the IC50 entry is given as “ND(Insoluble)”.

As for `CC(C)c1ccc(NC(=O)C(CC(=O)c2cccc3c2CCCC3)n2ccnc2)cc1` (racemic), the IC50 against Cholinesterase [1] was over 20 µM. On the same count and under the same terms, then `CC(C)c1ccc(NC(=O)C(CC(=O)c2cccc3c2CCCC3)N2CCOCC2)cc1` (racemic), with over 15 µM. On to `CC(C)c1ccc(NC(=O)C(CC(=O)c2cccc3c2CCCC3)N2CCN(C)CC2)cc1` (racemic), for which the Activity in the data set on Electrophorus electricus [11] was found to be 86.5%. At Cholinesterase [1], this compound gave a 50% inhibitory concentration (IC50) of 10.8 µM. `CC(C)c1ccc(C(=O)CC(C(=O)Nc2ccccc2)N2CCC(Cc3ccccc3)CC2)cc1` (racemic) had an IC50 against Cholinesterase [1] of over 20 µM. Same read-out and setting: then `COc1cc(NC(=O)C(CC(=O)c2ccc(C(C)C)cc2)N2CCN(CCN(C)C)CC2)cc(OC)c1` (racemic), with over 20 µM. For `CC(C)c1ccc(C(=O)CC(C(=O)NC2CCCCC2)N2CCCCC2)c(C(C)C)c1` (racemic), the Activity in data set [12] turned out to be 72.7%. As to `CC(C)c1ccc(C(=O)CC(C(=O)NC2CCCCC2)N2CCCCC2)cc1` (racemic), the results for the Activity (in the data set with Electrophorus electricus [13]; in data set [12]) were 63.1% and 65%, respectively. As for `CC(C)c1ccc(C(=O)CC(C(=O)NC2CCCCC2)N2CCN(C)CC2)cc1` (racemic), the Activity with Electrophorus electricus [14] turned out to be 86.2%; in [12], 66.2%. As to `CC(C)c1ccc(C(=O)CC(C(=O)NC2CCCCC2)N2CCOCC2)cc1` (racemic), the Activity in the data set on Electrophorus electricus [14] came to 85.1%; in data set [15], 46.8%.

Take `CC(C)c1ccc(C(=O)CC(C(=O)NC2CCCCC2)n2ccnc2)c(C(C)C)c1` (racemic): in data set [12], the Activity was determined as 65.8%. In the case of `CC(C)c1ccc(C(=O)CC(C(=O)NC2CCCCC2)n2ccnc2)cc1` (racemic), the Activity in the data set on Electrophorus electricus [13] was 65.3%; in [12] it was 76%. As to `CC(C)c1ccc(NC(=O)C(CC(=O)c2ccc(C(C)C)cc2)N2CCN(C)CC2)cc1` (racemic), in [2], the Activity is 72.4%. `CC(C)c1ccc(NC(=O)C(CC(=O)c2ccc(C(C)C)cc2C(C)C)N2CCOCC2)cc1` (racemic): the Activity was 44.4% in the data set with Electrophorus electricus [10] and 73.6% in data set [15]. In the case of `CC(C)c1ccc2c(c1C(=O)CC(C(=O)NC1CCCCC1)N1CCCCC1)CCCC2` (racemic), the Activity in data set [12] was determined as 61.5%. Same read-out and setting: as for `CC(C)c1ccc2c(c1C(=O)CC(C(=O)NC1CCCCC1)N1CCN(C)CC1)CCCC2` (racemic), the figure is 39.1%; as for `CC(C)c1ccc2c(c1C(=O)CC(C(=O)NC1CCCCC1)N1CCOCC1)CCCC2` (racemic), 75.2%; as for `CC(C)c1ccc2c(c1C(=O)CC(C(=O)NC1CCCCC1)n1ccnc1)CCCC2` (racemic), 52.2%. For the compound `CN1CCN(C(CC(=O)c2cccc3c2CCCC3)C(=O)NC2CCCCC2)CC1` (racemic), the Activity in data set [12] came to 56.7%. Turning to `COc1ccc(NC(=O)C(CC(=O)c2ccc(C(C)C)cc2C(C)C)N2CCOCC2)cc1OC` (racemic), in [15], the Activity was determined as 62.4%. `COc1ccc(NC(=O)C(CC(=O)c2ccc(C(C)C)cc2C(C)C)n2ccnc2)cc1OC` (racemic): the Activity in [12] was 78.4%.
